According to publication PMC13376213, “Systematic discovery of motif-based interactions of the auxiliary domains of USP family deubiquitinases” (Nature Communications, 2026):
Ends that are not written are not given here.

Experiments:
USP33 DUSP2 domain [1] = molecular target: T1, USP33 DUSP2 domain (Homo sapiens, UniProt Q8TEY7); assay: FP-monitored affinity measurements, USP33 DUSP2; assay type: binding; conditions: competitive FP: unlabeled peptide (N-acetylated, C-amidated) against protein with 10 nM FITC-labeled peptide; 50 mM phosphate pH 7.4, room temperature; technical triplicate; read-out: KD, USP33 DUSP2
T1 construct: USP33_DUSP2; Q8TEY7; DUSP2; 806; 921; 6xHis-GST (N, cleaved yes); made in house; host or cells: Escherichia coli BL21-Gold (DE3)
T1 sequence (Q8TEY7 with tags, fused parts or gaps): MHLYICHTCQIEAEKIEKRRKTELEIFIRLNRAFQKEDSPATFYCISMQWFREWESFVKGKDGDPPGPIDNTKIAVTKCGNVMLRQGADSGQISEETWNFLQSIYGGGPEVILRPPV
Protocol: (§1) Proteins were expressed in Escherichia coli (E.coli) BL21-Gold (DE3) bacteria. The cDNAs encoding N-terminal 6-histidine-glutathione S-transferase tagged (6xHis-GST), 6xHis-tagged or GST-tagged protein domains in pETM33, pETM11, pGEX6P1 expression vectors respectively, were obtained from Genescript or kindly provided by MRC-PPU (Suppl. Data 1) The bacteria were transformed with the plasmid and grew at 37 °C in 2YT (5 g/L NaCl, 16 g/L tryptone and 10 g/L yeast extract) supplemented with Kanamycin (30 μg/mL) until reaching an OD600 of 0.7. Protein expression was induced with 0.3 mM isopropyl β-D-1 thiogalactopyranoside (IPTG) for 18 h at 18 °C while shaking. For zinc-finger domains, 50 μM of ZnSO4 was added during expression. The bacterial cultures were pelleted for 15 minutes at 4000 x g at 4 °C and stored at −20 °C until purification. The pellets were resuspended in lysis buffer (1× phosphate-buffered saline (PBS), 0.5 % Triton-X, 5 mM MgCl2, 10 μg/mL lysozyme, cOmplete^TM EDTA-free protease inhibitor cocktail (Roche), 10 μg/mL DNAseI) and incubated for 1 h shaking at 4 °C. […] The supernatant was incubated with glutathione (GSH) Sepharose (Cytiva) or Ni2+ Sepharose (Cytiva) for 1 h at 4 °C while shaking. The beads with the bound protein were washed with 1x PBS and eluted with 10 mM reduced glutathione in 50 mM Tris pH 8.0. For fluorescence polarization experiments, the proteins were not eluted from the beads, and the 6xHis-GST tag was cleaved overnight on GSH Sepharose beads at 4 °C while shaking with PreScission Protease in cleavage buffer (50 mM Tris pH 7.5, 150 mM NaCl, 1 mM DTT). The sample containing the cleaved domain was separated from the tag and protease and buffer-exchanged to 50 mM sodium phosphate buffer pH 7.4 with 1 mM DTT using a PD-10 desalting column (Cytiva). The purity and size of the proteins were analyzed by SDS-PAGE electrophoresis.
The measurements were performed at room temperature in a non-binding black half area 96-well plate (Corning) with a total volume of 50 μL per well. Peptides were obtained from GeneCust (France) with >95% purity. FITC-labeled peptides (N-terminally FITC-labeled without spacer and C-terminally amidated) were dissolved in dimethyl sulfoxide (DMSO), and unlabeled peptides (N-terminally acetylated and C-terminally amidated) were dissolved in 50 mM phosphate buffer pH 7.4. Saturation measurements were performed using a serial dilution of the protein domains in phosphate buffer (25 μL) and the addition of 10 nM FITC-labeled peptide (in phosphate buffer supplemented with 2 mM DTT) (25 μL). […] All measurements were performed in three technical replicates. The data were analyzed using GraphPad Prism version 9.2.0 for MacOS (GraphPad Software, San Diego, California USA, www.graphpad.com). The saturation curves were fitted to the quadratic equation, and the displacement curves were fitted to a sigmoidal dose-response equation as described previously.

USP33 DUSP2 domain [2] = molecular target: T1, USP33 DUSP2 domain; assay: Peptide SPOT array, USP33 DUSP2; assay type: binding; conditions: average normalised to the highest intensity (CCDC88B = 100)
Protocol: (§2) Peptides were synthesized on cellulose membranes with standard Fluoroenylmethylox-ycarbonyl (Fmoc) chemistry using a Multipep automated synthesizer at INTAVIS (Tübingen, Germany) or ordered from JPT (PepSpots). The membranes were activated with methanol for 5 min and washed three times for 5 min with TBST (50 mM Tris, 137 mM NaCl, 2.7 mM KCl, pH 8.0, 0.05% Tween-20). The membranes were incubated with blocking buffer (5% skim milk powder in TBST) for 2 h at room temperature while shaking. The membranes were incubated with the GST-tagged protein diluted at the desired concentration in blocking buffer and incubated overnight at 4 °C while shaking. The membrane was rinsed 3 times with TBST and incubated with HRP-conjugated anti-GST antibody (Cytiva, RPN1236; 1:3000 dilution) in blocking buffer for 1 h at 4 °C while shaking. […] The images were analyzed in Fiji (ImageJ2 version 2.9.0).

USP20 DUSP2 domain = molecular target: T2, USP20 DUSP2 domain (Homo sapiens, UniProt Q9Y2K6); assay: Peptide SPOT array, USP20 DUSP2; assay type: binding; conditions: for Average: peptide SPOT array intensity minus background, mean of 2 replicas; for Average / Normalize to peptide with higher intensity %: sheet S5A; for Normalize to higher intensity (%) / Normalize to peptide with higher intensity %: peptide SPOT array; for Normalize to higher intensity (%): USP20 DUSP2, average normalised to the highest intensity (ARNTL2 = 100); for Normalize to peptide with higher intensity %: average normalized to the peptide with highest intensity (ARNTL2 = 100);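 for all read-outs here: GST-tagged domain probed overnight at 4 °C on peptides made on cellulose membranes, bound protein detected via HRP-coupled anti-GST antibody, spot intensity from image analysis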
T2 construct: USP20_DUSP2; Q9Y2K6; DUSP2; 776; 894; 6xHis-GST (N, cleaved yes); made in house; host or cells: Escherichia coli BL21-Gold (DE3)
Protocol: as §2

[3] = tested on: USP auxiliary domains and full-length CYLD and USP7 (baits); assay: ProP-PD selections against the HD2 library; assay type: binding, human; conditions: for mean_counts_% / specificity: ProP-PD peptide level
Protocol: We generated a collection of 29 USP ADs and two full-length USPs (CYLD and USP7). The collection was biased towards domains that are present in several USPs, such as zf-UBP domains, UBL domains and DUSP domains (Suppl. Data 1). We also included ADs only found in specific USPs, such as the three CAP-Gly domains of CYLD and the C-terminal domain of USP25. […] The peptide-coding regions of the phage pools were analyzed by next-generation sequencing (NGS), mapped to the corresponding proteins, and filtered for high/medium confidence ligands based on established criteria (with confidence level 4 being the highest).
as §1
The human disorderome library was used for four rounds of phage display selections. GST-tagged, 6xHis-tagged or GST-6xHis purified proteins were used as baits and GST was used as control by immobilization on a 96-well MaxiSorp plate (Nunc) overnight at 4 °C while shaking (10 μg of protein in 100 μL PBS). The wells containing the immobilized proteins were blocked with 0.5% BSA in PBS for 1 hour at 4 °C while shaking. The phage library was prepared by precipitation in 1/5th volume PEG/NaCl (20% PEG-8000 + 0.4 M NaCl), incubated for 10 min on ice, followed by centrifugation at 10,000 × g for 10 min at 4 °C and resuspended in PBS. The GST-coated wells were washed four times with 0.05% Tween 20 in PBS, and 100 μL/well phage library was added and incubated 1 h at 4 °C while shaking. The protein-coated wells were washed four times with 0.05% Tween 20 in PBS, and the phage solution from the GST-coated wells was transferred to the protein-coated wells and incubated 2 h at 4 °C while shaking. The unbound phages were removed by washing 5 times with 0.05% Tween 20 in PBS, and the bound phages were eluted with 100 μL/well log-phase E.coli OmniMAX by incubating for 30 min at 37 °C while shaking. M13KO7 helper phages (10^11 PFU/mL) were added to each well and incubated for 45 min at 37 °C while shaking. […]

[4] = bait CYLD_CAP-Gly-2 (Q9NQC7 235-307)
[5] = bait CYLD_CAP-Gly-1 (Q9NQC7 8-210), collapsed regions of overlapping peptides
[6] = bait CYLD_CAP-Gly-2 (Q9NQC7 235-307), collapsed regions of overlapping peptides

T2 sequence (Q9Y2K6 with tags, fused parts or gaps): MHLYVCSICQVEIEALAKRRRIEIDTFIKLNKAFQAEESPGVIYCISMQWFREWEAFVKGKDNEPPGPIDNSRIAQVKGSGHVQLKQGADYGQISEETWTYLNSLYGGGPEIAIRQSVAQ

Compound	Normalize to higher intensity (%) (USP33 DUSP2 domain [2])	Average (USP20 DUSP2 domain)	Normalize to higher intensity (%) (USP20 DUSP2 domain)	Normalize to peptide with higher intensity % (USP20 DUSP2 domain)	further results
CC[C@H](C)[C@H](NC(=O)[C@H](Cc1ccc(O)cc1)NC(=O)[C@@H]1C[C@@H](O)CN1C(C)=O)C(=O)N1CCC[C@H]1C(=O)N[C@@H](CCSC)C(=O)N[C@@H](CC(=O)O)C(=O)N[C@@H](CC(=O)O)C(=O)N[C@@H](CC(=O)O)C(=O)N[C@@H](Cc1ccccc1)C(=O)N[C@@H](CCC(N)=O)C(=O)N[C@@H](CC(C)C)C(=O)N[C@@H](CCCNC(=N)N)C(=O)N[C@@H](CO)C(=O)N[C@@H](Cc1ccccc1)C(=O)N[C@@H](CC(=O)O)C(=O)N[C@@H](CCC(N)=O)C(=O)N[C@@H](CC(C)C)C(=O)N[C@@H](CO)C(N)=O [HyPro-HIF1A564-581]	–	–	–	–	Kd (USP33 DUSP2 domain [1]): 7 µM
ATLATAWSLVEAAGLD [BAHCC1_2]	-24.9243%	-15.5033	-8.681%	-8.681%	–
Ac-PYIPMDKDFQLRSFDQLS-NH2 [D570K]	–	–	–	–	Kd (USP33 DUSP2 domain [1]): 10 µM
DLLSVAEMVALVEQRA [FBXO46_168-183]	–	–	–	–	mean_counts_% [3, 4]: 16.99%; specificity [3, 4]: 1.00
EAGLALRTDLQGEAQI [ZNF783]	68.6966%	-16.4483	-9.211%	-9.211%	–
EEDVLAFNLQHLATLA [BAHCC1_1]	29.5039%	-22.4783	-12.59%	-12.5871%	–
EGTEVAFPLLVSHRSQ [EMSY]	1.956%	-0.4433	-0.2483%	-0.2483%	–
EKEDSCFELLHRAVGH [ASB8]	10.516%	-31.4033	-17.58%	-17.5849%	–
GGLTDLSSLIQAGQQF [SGTB]	19.7113%	27.0767	15.16%	15.1621%	–
KEQLSSFDISPREKLI [ARNTL2]	36.7483%	178.582	100%	100%	–
KGHSRDFVLRRDLSAT [ZIC5]	49.982%	72.2767	40.47%	40.4726%	–
KMGSDEFDISPRISKQ [MGA]	61.0297%	138.987	77.83%	77.8281%	–
LRHPSGWWLVENEDRQ [NOXO1]	27.858%	44.4667	24.9%	24.8999%	–
MNFNVWNIKEMLSIPS [IHO1]	-0.2743%	-8.778	-4.916%	-4.916%	–
NGLDIAPRYFGFIKAC [SLC17A1]	22.3834%	7.792	4.363%	4.363%	–
PDAELQRMEQEAERRR [RBM25_558-573]	–	–	–	–	specificity ([3]; bait CYLD_CAP-Gly-1 (Q9NQC7 8-210)): 0.95; max_confidence [3, 5]: 2; max_specificity [3, 5]: 0.95
PYIPMDDDFQARSFDQLS [L574A]	–	–	–	–	Kd (USP33 DUSP2 domain [1]): > 200 µM
QPIDNSFDIQSRDCIS [MAP3K4]	25.9612%	40.0217	22.41%	22.4108%	–
RLQKDIWDIQMRSKSL [GBP2]	42.7122%	51.5267	28.85%	28.8533%	–
SQQDAQEFLRALMDLL	–	–	–	–	mean_counts_% [3, 4]: 30.84%; specificity [3, 4]: 0.87; max_specificity [3, 6]: 0.87
TWWDRYEEFVGLNEVR	–	–	–	–	mean_counts_% [3, 4]: 3.88%; specificity [3, 4]: 0.28; max_specificity [3, 6]: 0.28
VAEMVALVEQRA	–	–	–	–	max_specificity [3, 6]: 1.00
VAEMVALVEQRAALAL	–	–	–	–	mean_counts_% [3, 4]: 0.0147%; specificity [3, 4]: 0.48
VKHPRFFALFEKHGGY [PPIP5K1]	-36.2833%	-28.3983	-15.9%	-15.9022%	–
WRFEQLEWRSILLDMA	–	–	–	–	max_specificity [3, 6]: 0.60
